Experimental data as given in patent US7351731B2, “Azole derivatives and methods for making the same” (Board of Governors for Higher Education, State of Rhode …, priority 2005, dated 2008).
In brackets after ≈: the same amount, converted by molar mass.

Assays:
C. albicans ATCC 14053 [1] = assay: MIC microdilution susceptibility testing, C. albicans in SDB; format: cell-based, Candida albicans; settings: for fold more active than FLC against C. albicans in SDB: MIC ratio to FLC; for MIC C. albicans ATCC 14053, SDB: SDB medium pH 5.6, 35-37° C.; for MIC C. albicans ATCC 14053, SDB / MIC: 24-48 h, average of three experiments; for fold less antifungal activity against C. albicans in SDB than in RPMI: SDB versus RPMI; for MIC: Candida albicans, ATCC14053, pH 5.6, SDB medium pH 5.6, 35-37° C.
Experimental: (§1) Microorganisnis. […] Stock cultures were kept on Sabouraud dextrose agar (SDA; Becton-Dickinson and Co., Sparks, Md.). Subcultures were prepared on SDA at 35-37° C. Suspension cultures were prepared by inoculation of single colonies in 7 ml of normal saline solution.
(§2) Test compounds were dissolved in DMSO (0.56 mg/ml) and stored at 0° C. Working dilutions were made in RPMI or SDB medium. […] The final maximum concentration of DMSO in the assays was 5% (v/v).
(§3) Microdilutions for control experiments with C. albicans, A. niger, and C. neoformans were the modified method of National Committee for Clinical Laboratory Standards (NCCLS) method as described by Galgiani and by the more recent NCCLS M27-A microdilution methods as described previously. Galgiani, J. N. Antimicrob. Agents Chemother. […] Reference method for broth dilution antifungal susceptibility testing for yeasts. Approval standard. […] 9; C. arballeira, N. M., et al. Arch. Pharm.-Pharm. […] Dilutions were prepared in 0.1 ml of RPMI or SDB; the inocula were either 10^4 C. albicans or C. neoformans cells or A. niger spores. The tubes were incubated for 24-48 h at 36±1° C., and turbidity was read visually.

A. niger ATCC 16404 = assay: MIC microdilution susceptibility testing, A. niger in SDB; format: cell-based, Aspergillus niger; settings: for fold more potent than FLC against A. niger: MIC ratio to FLC, SDB
Experimental: as §1, §2, §3

C. neoformans ATCC 66031 = assay: MIC microdilution susceptibility testing, C. neoformans in SDB; format: cell-based, Cryptococcus neoformans; settings: SDB medium, 35-37° C., 24-48 h, average of three experiments; for MIC: Cryptococcus neoformans, ATCC66031
Experimental: as §1, §2, §3

C. albicans ATCC 14053 [2] = assay: Interaction studies (FIC index) against C. albicans in SDB; format: cell-based, Candida albicans; settings: for FIC index: mixed with FLC, C. albicans ATCC 14053, SDB
Text: . Fractional Inhibitory Concentration (FIC) index [FICindex=FICA+FICB] calculation was used to determine synergism between different components of the synthesized compounds while administered separately, where FICA or FICB equals to MIC of compounds A or B in combination divided by MIC of drug A or B alone. If the FIC index is ≦0.5, the combination is synergistic. […]

C. albicans ATCC 14053 [3] = assay: MIC microdilution susceptibility testing, C. albicans in RPMI; format: cell-based, Candida albicans; settings: RPMI medium pH 6.9, 35-37° C., 24-48 h, average of three experiments; for MIC: Candida albicans, ATCC14053, read-out: MIC C. albicans ATCC 14053, RPMI
Experimental: as §1, §2, §3

[4] = SDB medium, 35-37° C., 24-48 h, average of three experiments

Compound: CCCCCCC(Br)C(=O)OC(Cn1cncn1)(Cn1cncn1)c1ccc(F)cc1F (stereo not drawn) [Compound 1g, O-2-Bromooctanoylfluconazole]
- fold more active than FLC against C. albicans in SDB (C. albicans ATCC 14053 [1]): at least 40 fold
- MIC C. albicans ATCC 14053, SDB (C. albicans ATCC 14053 [1]): 111 µg/mL (≈ 217 µM)
- fold less antifungal activity against C. albicans in SDB than in RPMI (C. albicans ATCC 14053 [1]): 8 fold
- fold more potent than FLC against A. niger (A. niger ATCC 16404): at least 5.2 fold
- MIC A. niger ATCC 16404, SDB (A. niger ATCC 16404; [4]): 111 µg/mL (≈ 217 µM)
- MIC C. neoformans ATCC 66031, SDB (C. neoformans ATCC 66031): 14 µg/mL (≈ 27.4 µM)
- FIC index (C. albicans ATCC 14053 [2]): 1.05

Compound: CCCCCCC(Br)C(=O)O (stereo not drawn) [2-Bromooctanoic acid, reference compound]
- MIC (C. albicans ATCC 14053 [3]): 865 µg/mL (≈ 3880 µM)
- MIC (C. albicans ATCC 14053 [1]): 865 µg/mL (≈ 3880 µM)
- MIC (C. neoformans ATCC 66031): 433 µg/mL (≈ 1940 µM)
- FIC index (C. albicans ATCC 14053 [2]): 0.30
- fold less antifungal inhibition than 1g used alone (C. albicans ATCC 14053 [2]; mixture with FLC, C. albicans, SDB): approximately 2 fold

Compound: O=C(CCCCCCCCCCBr)OC(Cn1cncn1)(Cn1cncn1)c1ccc(F)cc1F [Compound 1j, O-11-Bromoundecanoylfluconazole]
- MIC C. albicans ATCC 14053, RPMI (C. albicans ATCC 14053 [3]): 12 µg/mL (≈ 21.7 µM)
- fold more active than FLC against C. albicans in SDB (C. albicans ATCC 14053 [1]): ≥ 22 fold
- MIC C. albicans ATCC 14053, SDB (C. albicans ATCC 14053 [1]): 198 µg/mL (≈ 358 µM)
- fold less antifungal activity against C. albicans in SDB than in RPMI (C. albicans ATCC 14053 [1]): 17 fold
- fold more potent than FLC against A. niger (A. niger ATCC 16404): ≥ 1.5 fold
- MIC A. niger ATCC 16404, SDB (A. niger ATCC 16404; [4]): 395 µg/mL (≈ 714 µM)
- FIC index (C. albicans ATCC 14053 [2]): 1.04

Compound: O=C(O)CCCCCCCCCCBr [11-Bromoundecanoic acid, reference compound]
- MIC (C. albicans ATCC 14053 [3]): 371 µg/mL (≈ 1400 µM)
- MIC (C. albicans ATCC 14053 [1]): 185 µg/mL (≈ 698 µM)
- MIC (A. niger ATCC 16404; Aspergillus niger, ATCC16404, SDB medium, 35-37° C., 24-48 h, average of three experiments): 93 µg/mL (≈ 351 µM)
- MIC (C. neoformans ATCC 66031): 23 µg/mL (≈ 86.7 µM)
- FIC index (C. albicans ATCC 14053 [2]): 0.52
